Data set [1] is described as follows: Au(I)-mediated imine macrocyclisation (JohnPhosAu(MeCN)SbF6 2 equiv, Et4NBr 16 equiv) then in situ NaBH4 reduction to cyclic amine, HPLC isolation. To be noted: the molecule shown is the open-chain precursor, 24-membered ring, DMF, 8.0 mM, 37.0 °C, 2 steps.
Data set [2] can be described thus: Au(I)-mediated imine macrocyclisation: N-terminal amine adds (Markovnikov) to N-propargyl backbone amide alkyne; JohnPhosAu(MeCN)SbF6 2 equiv, Et4NBr 16 equiv; in situ NaBH4 10 equiv reduction 15 min for quantification. To be noted: DMF, 8.0 mM, 37.0 °C, 1.0 h.

Results on 18 compounds are retold here after publication PMC8949771, “Gold(I)-Mediated Rapid Cyclization of Propargylated Peptides via Imine Formation” (Journal of the American Chemical Society, 2022).

Molecules are shown by their SMILES.

Consider `C#CCN(CC(N)=O)C(=O)[C@@H](NC(=O)[C@H](C)NC(=O)[C@H](CCCNC(=N)N)NC(=O)[C@H](Cc1ccc(O)cc1)NC(=O)[C@H](CC(C)C)NC(=O)CNC(=O)[C@@H](N)Cc1ccccc1)[C@@H](C)CC` [H-Phe-Gly-Leu-Tyr-Arg-Ala-Ile-(N-propargyl)Gly-NH2], for which the ring closure, yield over several steps in data set [1] (1.0 h) is 66%. On to `C#CCN(CC(N)=O)C(=O)CNC(=O)[C@H](C)NC(=O)[C@H](CCCNC(=N)N)NC(=O)[C@H](Cc1ccc(O)cc1)NC(=O)[C@H](CC(C)C)NC(=O)CNC(=O)[C@@H](N)Cc1c[nH]c2ccccc12` [H-Trp-Gly-Leu-Tyr-Arg-Ala-Gly-(N-propargyl)Gly-NH2], for which the ring closure, yield over several steps in data set [1] (1.0 h) turned out to be 74%. `CC(C)C[C@@H]1NC(=O)CNC(=O)[C@H](CCCNC(=N)N)NC(C)CN(CC(N)=O)C(=O)CNC(=O)[C@H](C)NC(=O)[C@H](CCCNC(=N)N)NC(=O)[C@H](Cc2ccc(O)cc2)NC1=O` (stereo partly drawn) [H-Arg-Gly-Leu-Tyr-Arg-Ala-Gly-(N-propargyl)Gly-NH2]: the ring closure, conversion by HPLC in data set [2] (from C#CCN(CC(N)=O)C(=O)CNC(=O)[C@H](C)NC(=O)[C@H](CCCNC(=N)N)NC(=O)[C@H](Cc1ccc(O)cc1)NC(=O)[C@H](CC(C)C)NC(=O)CNC(=O)[C@@H](N)CCCNC(=N)N, 24-membered ring) was found to be 83%. In the case of `CC(C)C[C@@H]1NC(=O)CNC(=O)[C@H](Cc2ccccc2)NC(C)CN(CC(N)=O)C(=O)CNC(=O)[C@H](C)NC(=O)[C@@H]2CCCN2C(=O)[C@H](Cc2ccc(O)cc2)NC1=O` (stereo partly drawn) [H-Phe-Gly-Leu-Tyr-Pro-Ala-Gly-(N-propargyl)Gly-NH2], the ring closure, conversion by HPLC in data set [2] (from C#CCN(CC(N)=O)C(=O)CNC(=O)[C@H](C)NC(=O)[C@@H]1CCCN1C(=O)[C@H](Cc1ccc(O)cc1)NC(=O)[C@H](CC(C)C)NC(=O)CNC(=O)[C@@H](N)Cc1ccccc1, 24-membered ring) came out at 77%. On to `CC(C)C[C@@H]1NC(=O)CNC(=O)[C@H](Cc2ccccc2)NC(C)CN(CC(N)=O)C(=O)[C@H](CC(=O)O)NC(=O)[C@H](C)NC(=O)[C@H](CCCNC(=N)N)NC(=O)[C@H](Cc2ccc(O)cc2)NC1=O` (stereo partly drawn) [H-Phe-Gly-Leu-Tyr-Arg-Ala-Asp-(N-propargyl)Gly-NH2], for which the ring closure, conversion by HPLC in data set [2] (from C#CCN(CC(N)=O)C(=O)[C@H](CC(=O)O)NC(=O)[C@H](C)NC(=O)[C@H](CCCNC(=N)N)NC(=O)[C@H](Cc1ccc(O)cc1)NC(=O)[C@H](CC(C)C)NC(=O)CNC(=O)[C@@H](N)Cc1ccccc1, 24-membered ring) stood at 80%. `CC(C)C[C@@H]1NC(=O)CNC(=O)[C@H](CO)NC(C)CN(CC(N)=O)C(=O)CNC(=O)[C@H](C)NC(=O)[C@H](CCCNC(=N)N)NC(=O)[C@H](Cc2ccc(O)cc2)NC1=O` (stereo partly drawn) [H-Ser-Gly-Leu-Tyr-Arg-Ala-Gly-(N-propargyl)Gly-NH2]: in data set [2] (from C#CCN(CC(N)=O)C(=O)CNC(=O)[C@H](C)NC(=O)[C@H](CCCNC(=N)N)NC(=O)[C@H](Cc1ccc(O)cc1)NC(=O)[C@H](CC(C)C)NC(=O)CNC(=O)[C@@H](N)CO, 24-membered ring), the ring closure, conversion by HPLC was 75%. As to `C#CCN(CC(N)=O)C(=O)CNC(=O)[C@H](C)NC(=O)[C@H](CCCNC(=N)N)NC(=O)[C@H](Cc1ccc(O)cc1)NC(=O)[C@H](CC(C)C)NC(=O)CNC(=O)[C@@H](N)Cc1ccccc1` [H-Phe-Gly-Leu-Tyr-Arg-Ala-Gly-(N-propargyl)Gly-NH2], the ring closure, yield over several steps in data set [1] (0.5 h) stood at 75%.

On to `CC(C)C[C@@H]1NC(=O)CNC(=O)[C@H](Cc2ccccc2)NC(C)CN(CC(N)=O)C(=O)[C@H](CO)NC(=O)[C@H](C)NC(=O)[C@H](CCCNC(=N)N)NC(=O)[C@H](Cc2ccc(O)cc2)NC1=O` (stereo partly drawn) [H-Phe-Gly-Leu-Tyr-Arg-Ala-Ser-(N-propargyl)Gly-NH2], for which, in data set [2] (from C#CCN(CC(N)=O)C(=O)[C@H](CO)NC(=O)[C@H](C)NC(=O)[C@H](CCCNC(=N)N)NC(=O)[C@H](Cc1ccc(O)cc1)NC(=O)[C@H](CC(C)C)NC(=O)CNC(=O)[C@@H](N)Cc1ccccc1, 24-membered ring), the ring closure, conversion by HPLC came out at 64%. Consider `CC(C)C[C@@H]1NC(=O)CNC(=O)[C@H](Cc2ccccc2)NC(C)CN([C@@H](Cc2ccccc2)C(N)=O)C(=O)CNC(=O)[C@H](C)NC(=O)[C@H](CCCNC(=N)N)NC(=O)[C@H](Cc2ccc(O)cc2)NC1=O` (stereo partly drawn) [H-Phe-Gly-Leu-Tyr-Arg-Ala-Gly-(N-propargyl)Phe-NH2], for which the ring closure, conversion by HPLC in data set [2] (from C#CCN(C(=O)CNC(=O)[C@H](C)NC(=O)[C@H](CCCNC(=N)N)NC(=O)[C@H](Cc1ccc(O)cc1)NC(=O)[C@H](CC(C)C)NC(=O)CNC(=O)[C@@H](N)Cc1ccccc1)[C@@H](Cc1ccccc1)C(N)=O, 24-membered ring) was 88%. Take `CC(C)C[C@@H]1NC(=O)CNC(=O)[C@H](Cc2ccccc2)NC(C)CN(CC(N)=O)C(=O)CNC(=O)[C@H](C)NC(=O)[C@H](CC(=O)O)NC(=O)[C@H](Cc2ccc(O)cc2)NC1=O` (stereo partly drawn) [H-Phe-Gly-Leu-Tyr-Asp-Ala-Gly-(N-propargyl)Gly-NH2]: in data set [2] (from C#CCN(CC(N)=O)C(=O)CNC(=O)[C@H](C)NC(=O)[C@H](CC(=O)O)NC(=O)[C@H](Cc1ccc(O)cc1)NC(=O)[C@H](CC(C)C)NC(=O)CNC(=O)[C@@H](N)Cc1ccccc1, 24-membered ring), the ring closure, conversion by HPLC was determined as 82%. Regarding `CC(C)C[C@@H]1NC(=O)CNC(=O)[C@H](Cc2ccccc2)NC(C)CN(CC(N)=O)C(=O)CNC(=O)[C@H](C)NC(=O)[C@H](Cc2c[nH]cn2)NC(=O)[C@H](Cc2ccc(O)cc2)NC1=O` (stereo partly drawn) [H-Phe-Gly-Leu-Tyr-His-Ala-Gly-(N-propargyl)Gly-NH2], the ring closure, conversion by HPLC in data set [2] (from C#CCN(CC(N)=O)C(=O)CNC(=O)[C@H](C)NC(=O)[C@H](Cc1c[nH]cn1)NC(=O)[C@H](Cc1ccc(O)cc1)NC(=O)[C@H](CC(C)C)NC(=O)CNC(=O)[C@@H](N)Cc1ccccc1, 24-membered ring) is 57%.

Take `CC(C)C[C@@H]1NC(=O)CNC(=O)[C@H](CCC(=O)O)NC(C)CN(CC(N)=O)C(=O)CNC(=O)[C@H](C)NC(=O)[C@H](CCCNC(=N)N)NC(=O)[C@H](Cc2ccc(O)cc2)NC1=O` (stereo partly drawn) [H-Glu-Gly-Leu-Tyr-Arg-Ala-Gly-(N-propargyl)Gly-NH2]: the ring closure, conversion by HPLC in data set [2] (from C#CCN(CC(N)=O)C(=O)CNC(=O)[C@H](C)NC(=O)[C@H](CCCNC(=N)N)NC(=O)[C@H](Cc1ccc(O)cc1)NC(=O)[C@H](CC(C)C)NC(=O)CNC(=O)[C@@H](N)CCC(=O)O, 24-membered ring) was found to be 89%. For the compound `CC(C)C[C@@H]1NC(=O)CNC(=O)[C@H](Cc2ccccc2)NC(C)CN([C@@H](CC(=O)O)C(N)=O)C(=O)CNC(=O)[C@H](C)NC(=O)[C@H](CCCNC(=N)N)NC(=O)[C@H](Cc2ccc(O)cc2)NC1=O` (stereo partly drawn) [H-Phe-Gly-Leu-Tyr-Arg-Ala-Gly-(N-propargyl)Asp-NH2], the ring closure, conversion by HPLC in data set [2] (from C#CCN(C(=O)CNC(=O)[C@H](C)NC(=O)[C@H](CCCNC(=N)N)NC(=O)[C@H](Cc1ccc(O)cc1)NC(=O)[C@H](CC(C)C)NC(=O)CNC(=O)[C@@H](N)Cc1ccccc1)[C@@H](CC(=O)O)C(N)=O, 24-membered ring) turned out to be 56%. For the compound `CC(C)C[C@@H]1NC(=O)CNC(=O)[C@H](CS)NC(C)CN(CC(N)=O)C(=O)CNC(=O)[C@H](C)NC(=O)[C@H](CCCNC(=N)N)NC(=O)[C@H](Cc2ccc(O)cc2)NC1=O` (stereo partly drawn) [H-Cys-Gly-Leu-Tyr-Arg-Ala-Gly-(N-propargyl)Gly-NH2], the ring closure, conversion by HPLC in data set [2] (from C#CCN(CC(N)=O)C(=O)CNC(=O)[C@H](C)NC(=O)[C@H](CCCNC(=N)N)NC(=O)[C@H](Cc1ccc(O)cc1)NC(=O)[C@H](CC(C)C)NC(=O)CNC(=O)[C@@H](N)CS, 24-membered ring) worked out at 76%.

As for `C#CCN(C(=O)CNC(=O)[C@H](C)NC(=O)[C@H](CCCNC(=N)N)NC(=O)[C@H](Cc1ccc(O)cc1)NC(=O)[C@H](CC(C)C)NC(=O)CNC(=O)[C@@H](N)Cc1ccccc1)[C@H](C(N)=O)[C@@H](C)CC` [H-Phe-Gly-Leu-Tyr-Arg-Ala-Gly-(N-propargyl)Ile-NH2], in data set [1] (1.0 h), the ring closure, yield over several steps was found to be 60%. Take `CC(C)C[C@@H]1NC(=O)CNC(=O)[C@H](Cc2ccccc2)NC(C)CN(CC(N)=O)C(=O)CNC(=O)[C@H](C)NC(=O)[C@H](CCC(N)=O)NC(=O)[C@H](Cc2ccc(O)cc2)NC1=O` (stereo partly drawn) [H-Phe-Gly-Leu-Tyr-Gln-Ala-Gly-(N-propargyl)Gly-NH2]: the ring closure, conversion by HPLC in data set [2] (from C#CCN(CC(N)=O)C(=O)CNC(=O)[C@H](C)NC(=O)[C@H](CCC(N)=O)NC(=O)[C@H](Cc1ccc(O)cc1)NC(=O)[C@H](CC(C)C)NC(=O)CNC(=O)[C@@H](N)Cc1ccccc1, 24-membered ring) came out at 64%. Turning to `CC(C)C[C@@H]1NC(=O)CNC(C)CN(CC(N)=O)C(=O)CNC(=O)CNC(=O)CNC(=O)[C@H](C)NC(=O)[C@H](CCCNC(=N)N)NC(=O)[C@H](Cc2ccc(O)cc2)NC(=O)[C@H](CC(C)C)NC(=O)[C@H](Cc2ccccc2)NC(=O)[C@H](C)NC(=O)[C@H](CCCNC(=N)N)NC(=O)[C@H](Cc2ccc(O)cc2)NC1=O` (stereo partly drawn), the ring closure, conversion by HPLC in data set [2] (from C#CCN(CC(N)=O)C(=O)CNC(=O)CNC(=O)CNC(=O)[C@H](C)NC(=O)[C@H](CCCNC(=N)N)NC(=O)[C@H](Cc1ccc(O)cc1)NC(=O)[C@H](CC(C)C)NC(=O)[C@H](Cc1ccccc1)NC(=O)[C@H](C)NC(=O)[C@H](CCCNC(=N)N)NC(=O)[C@H](Cc1ccc(O)cc1)NC(=O)[C@H](CC(C)C)NC(=O)CN, 42-membered ring) is 90%. As to `CC(C)C[C@@H]1NC(=O)CNC(=O)[C@H](Cc2ccccc2)NC(C)CN(CC(N)=O)C(=O)CNC(=O)[C@H](C)NC(=O)[C@H](CO)NC(=O)[C@H](Cc2ccc(O)cc2)NC1=O` (stereo partly drawn) [H-Phe-Gly-Leu-Tyr-Ser-Ala-Gly-(N-propargyl)Gly-NH2], the ring closure, conversion by HPLC in data set [2] (from C#CCN(CC(N)=O)C(=O)CNC(=O)[C@H](C)NC(=O)[C@H](CO)NC(=O)[C@H](Cc1ccc(O)cc1)NC(=O)[C@H](CC(C)C)NC(=O)CNC(=O)[C@@H](N)Cc1ccccc1, 24-membered ring) came out at 74%.
